From patent publication US8440710B2, “HSL inhibitors useful in the treatment of diabetes” (Hoffmann-La Roche Inc., priority 2009, dated 2013)

Each compound was assayed against T1, human HSL (Homo sapiens, UniProt Q05469) (assay: Human Hormone-Sensitive Lipase (HSL) enzyme inhibition assay (colorimetric, DMPT substrate)). Conditions: human full length HSL-His6, 2,3-dimercapto-1-propanol tributyrate substrate, 37° C. 20 minutes, absorbance at 405 nm; read-out: HSL hum IC50.
T1 construct: generate a full length human HSL ORF with a 3′-His6 tag; made in house; host or cells: High 5 insect cells (baculovirus, pFast-BAC)
T1 sequence (Q05469 1-1076): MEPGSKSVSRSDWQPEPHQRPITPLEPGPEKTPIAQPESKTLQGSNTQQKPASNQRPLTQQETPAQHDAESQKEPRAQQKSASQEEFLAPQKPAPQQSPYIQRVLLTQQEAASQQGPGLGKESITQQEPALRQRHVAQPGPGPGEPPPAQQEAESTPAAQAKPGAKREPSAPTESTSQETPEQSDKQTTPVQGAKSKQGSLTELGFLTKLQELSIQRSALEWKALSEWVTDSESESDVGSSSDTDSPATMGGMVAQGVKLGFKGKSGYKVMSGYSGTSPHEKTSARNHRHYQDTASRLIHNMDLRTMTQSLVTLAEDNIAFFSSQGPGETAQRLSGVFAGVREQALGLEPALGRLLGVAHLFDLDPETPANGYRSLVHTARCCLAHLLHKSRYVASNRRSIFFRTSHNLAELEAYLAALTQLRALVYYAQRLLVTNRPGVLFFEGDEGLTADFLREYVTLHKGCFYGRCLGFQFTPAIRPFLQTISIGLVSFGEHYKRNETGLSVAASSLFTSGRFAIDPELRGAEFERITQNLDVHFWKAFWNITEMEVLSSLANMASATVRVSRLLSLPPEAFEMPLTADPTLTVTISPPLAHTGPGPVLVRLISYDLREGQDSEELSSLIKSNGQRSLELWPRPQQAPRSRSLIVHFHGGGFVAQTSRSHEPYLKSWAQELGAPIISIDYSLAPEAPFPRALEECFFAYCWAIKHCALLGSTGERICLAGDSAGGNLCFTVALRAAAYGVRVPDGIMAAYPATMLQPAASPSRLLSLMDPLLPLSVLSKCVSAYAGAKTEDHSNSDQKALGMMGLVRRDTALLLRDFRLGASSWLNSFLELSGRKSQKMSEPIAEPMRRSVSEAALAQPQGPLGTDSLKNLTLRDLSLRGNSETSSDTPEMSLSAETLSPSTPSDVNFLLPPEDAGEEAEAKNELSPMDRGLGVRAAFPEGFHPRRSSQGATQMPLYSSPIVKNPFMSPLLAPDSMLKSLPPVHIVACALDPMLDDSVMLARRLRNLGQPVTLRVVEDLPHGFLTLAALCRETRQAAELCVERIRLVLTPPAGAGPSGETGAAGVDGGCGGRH
Assay type: biochemical
Summary of the method: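 Full-length human HSL with C-terminal His6, expressed in baculovirus-infected High 5 cells and Ni-NTA purified, was added (15 ug/ml stock) to 1.5 mM DMPT in 100 mM MOPS pH 7.2, 0.2 mg/ml fatty acid-free BSA containing compound. After 20 min at 37 °C, DTNB with SDS/Triton X-100 was added; A405 read after 15 min at RT.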

Row | SMILES | IC50
1 | C[C@H](Oc1ccc(N2CC[C@]3(CC[C@@](O)(C(F)(F)F)CC3)C2=O)cc1)C(F)(F)F [Example 177a, (5α,8α)-8-Hydroxy-8-trifluoromethyl-2-[4-((S)-2,2,2-trifluoro-1-methyl-ethoxy)-phenyl]-2-aza-spiro[4.5]decan-1-one] | 0.04 µM
2 | O=C1N(c2ccc(OCC(F)(F)F)nc2)CC[C@]12CC[C@@](O)(C(F)(F)F)CC2 [Example 178, (5α,8α)-8-Hydroxy-2-[6-(2,2,2-trifluoro-ethoxy)-pyridin-3-yl]-8-trifluoromethyl-2-aza-spiro[4.5]decan-1-one] | 0.15 µM
3 | C[C@@H](Oc1ccc(N2CC[C@]3(CC[C@@](O)(C4CC4)CC3)C2=O)cn1)C(F)(F)F [Example 179, (5α,8α)-8-Cyclopropyl-8-hydroxy-2-[6-((R)-2,2,2-trifluoro-1-methyl-ethoxy)-pyridin-3-yl]-2-aza-spiro[4.5]decan-1-one] | 0.03 µM
4 | C[C@@H](Oc1ccc(N2CC[C@]3(CC[C@@](O)(C4CC4)CC3)C2=O)cc1)C(F)(F)F [Example 181a, (5α,8α)-8-Cyclopropyl-8-hydroxy-2-[4-((R)-2,2,2-trifluoro-1-methyl-ethoxy)-phenyl]-2-aza-spiro[4.5]decan-1-one] | 0.02 µM
5 | CCC[C@]1(O)CC[C@]2(CCN(c3ccc(OS(=O)(=O)C4CC4)cc3)C2=O)CC1 [Example 182, 4-((5α,8α)-8-hydroxy-1-oxo-8-propyl-2-aza-spiro[4.5]decan-2-yl)phenyl cyclopropanesulfonate] | 0.03 µM
6 | CC[C@]1(O)CC[C@]2(CCN(c3ccc(OS(=O)(=O)C4CC4)cc3)C2=O)CC1 [Example 183, 4-((5α,8α)-8-ethyl-8-hydroxy-1-oxo-2-aza-spiro[4.5]decan-2-yl)phenyl cyclopropanesulfonate] | 0.07 µM
7 | CC[C@]1(O)CC[C@]2(CCN(c3ccc(OC(C)C)cc3)C2=O)CC1 [Example 186, (5α,8α)-8-Ethyl-8-hydroxy-2-(4-isopropoxy-phenyl)-2-aza-spiro[4.5]decan-1-one] | 0.02 µM
8 | CCC[C@]1(O)CC[C@]2(CCN(c3ccc(S(=O)(=O)CC)cc3)C2=O)CC1 [Example 187, (5α,8α)-2-(4-Ethanesulfonyl-phenyl)-8-hydroxy-8-propyl-2-aza-spiro[4.5]decan-1-one] | 0.65 µM
9 | CCC[C@]1(O)CC[C@]2(CCN(Cc3ccc(OC(F)(F)F)cc3)C2=O)CC1 [Example 188, (5α,8α)-8-hydroxy-8-propyl-2-(4-(trifluoromethoxy)benzyl)-2-aza-spiro[4.5]decan-1-one] | 0.08 µM
10 | CCC[C@]1(O)CC[C@]2(CCN(c3ccc(C(O)C(C)(F)F)cc3)C2=O)CC1 (stereo partly drawn) [Example 192, (5α,8α)-2-(4-(2,2-difluoro-1-hydroxypropyl)phenyl)-8-hydroxy-8-propyl-2-aza-spiro[4.5]decan-1-one] | 0.05 µM
11 | CC(F)(F)C(O)c1ccc(N2CC[C@]3(CC[C@@](O)(CCC(F)(F)F)CC3)C2=O)cc1 (stereo partly drawn) [Example 193, (5α,8α)-2-(4-(2,2-difluoro-1-hydroxypropyl)phenyl)-8-hydroxy-8-(3,3,3-trifluoropropyl)-2-aza-spiro[4.5]decan-1-one] | 0.03 µM
12 | O=C1N(c2ccc([C@@H](O)C(F)(F)F)cc2)CC[C@]12CC[C@@](O)(CCC(F)(F)F)CC2 [Example 194, (5α,8α)-8-hydroxy-2-(4-((R)-2,2,2-trifluoro-1-hydroxyethyl)phenyl)-8-(3,3,3-trifluoropropyl)-2-aza-spiro[4.5]decan-1-one] | 0.02 µM
13 | CCC[C@]1(O)CC[C@]2(CCN(c3ccc(C(O)C(F)F)cc3)C2=O)CC1 (stereo partly drawn) [Example 195, (5α,8α)-2-(4-(2,2-difluoro-1-hydroxyethyl)phenyl)-8-hydroxy-8-propyl-2-aza-spiro[4.5]decan-1-one] | 0.11 µM
14 | CC(C)Oc1ccc(N2CC[C@]3(CC[C@@](O)(C(C)C)CC3)C2=O)cc1 [Example 196, (5α,8α)-8-hydroxy-2-(4-isopropoxyphenyl)-8-isopropyl-2-aza-spiro[4.5]decan-1-one] | 0.01 µM
15 | CC(C)Oc1ccc(N2CC[C@]3(CC[C@@](O)(C4CCCC4)CC3)C2=O)cc1 [Example 198, (5α,8α)-8-cyclopentyl-8-hydroxy-2-(4-isopropoxyphenyl)-2-aza-spiro[4.5]decan-1-one] | 0.01 µM
16 | CC(C)C[C@]1(O)CC[C@]2(CCN(c3ccc(OC(C)C)cc3)C2=O)CC1 [Example 199, (5α,8α)-8-hydroxy-8-isobutyl-2-(4-isopropoxyphenyl)-2-aza-spiro[4.5]decan-1-one] | 0.01 µM
17 | O=C1N(c2ccc([C@@H](O)C(F)(F)F)cc2)CC[C@]12CC[C@@](O)(C1CCC1)CC2 [Example 200, (5α,8α)-8-cyclobutyl-8-hydroxy-2-(4-((R)-2,2,2-trifluoro-1-hydroxyethyl)phenyl)-2-aza-spiro[4.5]decan-1-one] | 0.02 µM

Continued by falling IC50, values first:

Row | IC50 | SMILES
18 | 0.1 µM | O=C1N(c2ccc(OS(=O)(=O)C3CC3)cc2)CC[C@]12CC[C@@](O)(C(F)(F)F)CC2 [Example 189, 4-((5α,8α)-8-hydroxy-1-oxo-8-(trifluoromethyl)-2-aza-spiro[4.5]decan-2-yl)phenyl cyclopropanesulfonate]
19 | 0.05 µM | CCC[C@]1(O)CC[C@@]2(CCN(c3ccc(OS(C)(=O)=O)cc3)C2=O)CC1 [Example 185, 4-((5α,8β))-8-hydroxy-1-oxo-8-propyl-2-aza-spiro[4.5]decan-2-yl)phenyl methanesulfonate]
20 | 0.05 µM | CC(C)[C@]1(O)CC[C@]2(CCN(c3ccc(C(O)C(C)(F)F)cc3)C2=O)CC1 (stereo partly drawn) [Example 191, (5α,8α)-2-(4-(2,2-difluoro-1-hydroxypropyl)phenyl)-8-hydroxy-8-isopropyl-2-aza-spiro[4.5]decan-1-one]
21 | 0.04 µM | C[C@@H](Oc1ccc(N2CC[C@]3(CC[C@@](O)(C(F)(F)F)CC3)C2=O)cc1)C(F)(F)F [Example 177b, (5α,8α)-8-Hydroxy-8-trifluoromethyl-2-[4-((R)-2,2,2-trifluoro-1-methyl-ethoxy)-phenyl]-2-aza-spiro[4.5]decan-1-one]
22 | 0.03 µM | CC(Oc1ccc(N2CC[C@]3(CC[C@@](O)(C(F)(F)F)CC3)C2=O)cc1)C(F)(F)F (stereo partly drawn) [Example 177, (5α,8α)-8-Hydroxy-8-trifluoromethyl-2-[4-(2,2,2-trifluoro-1-methyl-ethoxy)-phenyl]-2-aza-spiro[4.5]decan-1-one]
23 | 0.03 µM | C[C@H](Oc1ccc(N2CC[C@]3(CC[C@@](O)(C4CC4)CC3)C2=O)cn1)C(F)(F)F [Example 180, (5α,8α)-8-Cyclopropyl-8-hydroxy-2-[6-((S)-2,2,2-trifluoro-1-methyl-ethoxy)-pyridin-3-yl]-2-aza-spiro[4.5]decan-1-one]
24 | 0.02 µM | CCC[C@]1(O)CC[C@]2(CCN(c3ccc(O[C@H](C)C(F)(F)F)nc3)C2=O)CC1 [Example 176, (5α,8α)-8-Hydroxy-8-propyl-2-[6-((R)-2,2,2-trifluoro-1-methyl-ethoxy)-pyridin-3-yl]-2-aza-spiro[4.5]decan-1-one]
25 | 0.02 µM | CC(Oc1ccc(N2CC[C@]3(CC[C@@](O)(C4CC4)CC3)C2=O)cc1)C(F)(F)F (stereo partly drawn) [Example 181, (5α,8α)-8-Cyclopropyl-8-hydroxy-2-[4-(2,2,2-trifluoro-1-methyl-ethoxy)-phenyl]-2-aza-spiro[4.5]decan-1-one]
26 | 0.02 µM | CCC[C@]1(O)CC[C@]2(CCN(c3ccc(OC(C)C)cc3)C2=O)CC1 [Example 184, (5α,8α)-8-Hydroxy-2-(4-isopropoxyphenyl)-8-propyl-2-aza-spiro[4.5]decan-1-one]
27 | 0.02 µM | CC(C)Oc1ccc(N2CC[C@]3(CC[C@@](O)(C4CC4)CC3)C2=O)cc1 [Example 197, (5α,8α)-8-cyclopropyl-8-hydroxy-2-(4-isopropoxyphenyl)-2-aza-spiro[4.5]decan-1-one]
28 | 0.01 µM | CCCC[C@]1(O)CC[C@]2(CCN(c3ccc([C@@H](O)C(F)(F)F)cc3)C2=O)CC1 [Example 190, (5α,8α)-8-butyl-8-hydroxy-2-(4-((R)-2,2,2-trifluoro-1-hydroxyethyl)phenyl)-2-aza-spiro[4.5]decan-1-one]
